Reference: paper PMC9851200, “Multiparameter phenotypic screening for endogenous TFEB and TFE3 translocation identifies novel chemical series modulating lysosome function” (Autophagy, 2022)

How the values were obtained:
Format in all cases: binding
[1] = molecular target: T1, kinases (KINOMEscan panel) (Homo sapiens, UniProt Q02156); conditions: kinase PRKCE; NEW KINOMEscan
T1 sequence (Q02156 1-737): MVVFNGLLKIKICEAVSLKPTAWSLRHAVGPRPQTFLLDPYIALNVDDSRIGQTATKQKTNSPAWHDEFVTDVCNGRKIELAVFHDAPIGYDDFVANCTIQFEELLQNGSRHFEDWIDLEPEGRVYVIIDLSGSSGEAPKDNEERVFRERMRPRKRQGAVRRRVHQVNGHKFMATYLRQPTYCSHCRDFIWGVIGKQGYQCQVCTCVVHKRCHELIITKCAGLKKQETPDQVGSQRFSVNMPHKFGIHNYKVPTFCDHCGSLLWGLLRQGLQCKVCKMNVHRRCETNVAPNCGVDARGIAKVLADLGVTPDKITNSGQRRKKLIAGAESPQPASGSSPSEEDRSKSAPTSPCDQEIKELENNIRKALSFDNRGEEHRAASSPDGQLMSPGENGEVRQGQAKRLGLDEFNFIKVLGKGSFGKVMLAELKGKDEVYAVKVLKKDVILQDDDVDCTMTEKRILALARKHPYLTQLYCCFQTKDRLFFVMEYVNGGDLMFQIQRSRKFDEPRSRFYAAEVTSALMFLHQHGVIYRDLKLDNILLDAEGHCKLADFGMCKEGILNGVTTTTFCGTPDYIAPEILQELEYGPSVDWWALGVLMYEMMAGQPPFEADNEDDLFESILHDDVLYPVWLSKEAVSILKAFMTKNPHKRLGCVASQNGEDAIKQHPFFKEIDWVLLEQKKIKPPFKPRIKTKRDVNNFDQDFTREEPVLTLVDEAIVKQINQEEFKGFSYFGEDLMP

[2] = molecular target: kinases (KINOMEscan panel) (Homo sapiens, UniProt Q07002); conditions: kinase CDK18; NEW KINOMEscan
[3] = molecular target: kinases (KINOMEscan panel) (Homo sapiens, UniProt Q96J92); conditions: WNK4; NEW KINOMEscan
[4] = molecular target: kinases (KINOMEscan panel) (Homo sapiens, UniProt P50750); conditions: kinase CDK9; NEW KINOMEscan
[5] = molecular target: T2, kinases (KINOMEscan panel) (Homo sapiens, UniProt Q96D53); conditions: kinase COQ8B; NEW KINOMEscan
T2 sequence (Q96D53 1-544): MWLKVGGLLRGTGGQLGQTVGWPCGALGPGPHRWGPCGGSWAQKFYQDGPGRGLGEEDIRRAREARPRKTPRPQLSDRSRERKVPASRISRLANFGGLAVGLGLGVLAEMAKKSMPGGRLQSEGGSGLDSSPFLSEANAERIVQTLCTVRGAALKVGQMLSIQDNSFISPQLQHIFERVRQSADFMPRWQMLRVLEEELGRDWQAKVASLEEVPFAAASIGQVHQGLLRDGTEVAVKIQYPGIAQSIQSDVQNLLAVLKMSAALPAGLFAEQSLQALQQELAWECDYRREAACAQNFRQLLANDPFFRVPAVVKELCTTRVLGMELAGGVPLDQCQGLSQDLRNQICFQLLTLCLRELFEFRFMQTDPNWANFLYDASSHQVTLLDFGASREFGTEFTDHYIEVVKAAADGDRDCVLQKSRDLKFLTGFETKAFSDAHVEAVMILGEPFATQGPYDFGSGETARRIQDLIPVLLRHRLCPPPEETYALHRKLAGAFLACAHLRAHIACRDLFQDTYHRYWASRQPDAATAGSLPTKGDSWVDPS

[6] = molecular target: kinases (KINOMEscan panel) (Homo sapiens, UniProt Q00536); conditions: kinase CDK16; NEW KINOMEscan
[7] = molecular target: kinases (KINOMEscan panel) (Homo sapiens, UniProt Q8N5S9); conditions: CAMKK1; NEW KINOMEscan
[8] = molecular target: kinases (KINOMEscan panel) (Homo sapiens, UniProt Q9Y243); conditions: kinase AKT3; NEW KINOMEscan
[9] = molecular target: T3, kinases (KINOMEscan panel) (Homo sapiens, UniProt Q6PHR2); conditions: kinase ULK3; NEW KINOMEscan
T3 sequence (Q6PHR2 1-472): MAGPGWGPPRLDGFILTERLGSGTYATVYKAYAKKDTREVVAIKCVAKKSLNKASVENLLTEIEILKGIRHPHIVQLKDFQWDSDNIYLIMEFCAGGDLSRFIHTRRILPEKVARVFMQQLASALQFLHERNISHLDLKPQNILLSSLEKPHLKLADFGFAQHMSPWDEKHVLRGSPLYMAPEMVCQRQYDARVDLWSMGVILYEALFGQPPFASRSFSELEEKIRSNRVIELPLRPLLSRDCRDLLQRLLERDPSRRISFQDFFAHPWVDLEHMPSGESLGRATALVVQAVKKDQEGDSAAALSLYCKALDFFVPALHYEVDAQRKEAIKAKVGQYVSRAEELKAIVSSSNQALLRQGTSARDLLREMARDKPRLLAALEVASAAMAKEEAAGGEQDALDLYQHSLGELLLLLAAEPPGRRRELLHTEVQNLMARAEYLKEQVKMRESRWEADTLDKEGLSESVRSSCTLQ

kinases (KINOMEscan panel) (Homo sapiens, UniProt Q96J92), sequence (Q96J92 whole entry): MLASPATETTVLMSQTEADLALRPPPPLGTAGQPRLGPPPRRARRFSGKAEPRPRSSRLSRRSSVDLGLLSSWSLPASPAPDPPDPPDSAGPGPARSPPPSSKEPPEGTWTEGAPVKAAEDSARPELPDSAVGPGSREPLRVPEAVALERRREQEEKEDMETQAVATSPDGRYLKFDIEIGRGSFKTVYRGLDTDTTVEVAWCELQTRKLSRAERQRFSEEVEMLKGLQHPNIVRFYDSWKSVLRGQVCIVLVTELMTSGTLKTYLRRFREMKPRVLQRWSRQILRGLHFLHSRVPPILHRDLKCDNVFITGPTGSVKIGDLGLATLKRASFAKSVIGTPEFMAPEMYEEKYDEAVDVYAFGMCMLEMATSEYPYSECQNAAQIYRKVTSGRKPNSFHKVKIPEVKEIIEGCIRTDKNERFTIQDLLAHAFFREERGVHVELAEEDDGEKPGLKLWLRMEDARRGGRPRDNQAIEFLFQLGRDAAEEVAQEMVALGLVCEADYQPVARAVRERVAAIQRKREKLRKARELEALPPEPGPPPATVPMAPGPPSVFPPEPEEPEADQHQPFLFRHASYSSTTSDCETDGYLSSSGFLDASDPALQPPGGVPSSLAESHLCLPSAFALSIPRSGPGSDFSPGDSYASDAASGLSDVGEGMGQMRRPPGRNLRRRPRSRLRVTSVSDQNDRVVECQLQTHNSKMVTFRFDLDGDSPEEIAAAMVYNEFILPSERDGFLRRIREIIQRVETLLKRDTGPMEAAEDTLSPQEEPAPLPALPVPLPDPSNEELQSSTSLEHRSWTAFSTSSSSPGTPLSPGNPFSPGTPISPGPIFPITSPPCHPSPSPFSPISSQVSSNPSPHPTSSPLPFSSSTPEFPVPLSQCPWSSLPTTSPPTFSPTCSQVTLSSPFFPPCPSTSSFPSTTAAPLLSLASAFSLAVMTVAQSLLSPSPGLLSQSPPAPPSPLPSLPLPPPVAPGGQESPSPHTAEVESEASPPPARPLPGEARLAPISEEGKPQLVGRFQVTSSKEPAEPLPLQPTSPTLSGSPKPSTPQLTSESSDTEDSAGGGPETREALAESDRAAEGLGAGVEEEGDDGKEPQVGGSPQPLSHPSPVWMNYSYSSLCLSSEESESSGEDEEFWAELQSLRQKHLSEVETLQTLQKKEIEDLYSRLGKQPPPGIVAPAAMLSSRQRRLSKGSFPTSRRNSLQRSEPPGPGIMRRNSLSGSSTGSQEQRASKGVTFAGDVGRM
kinases (KINOMEscan panel) (Homo sapiens, UniProt Q9Y243), sequence (Q9Y243 whole entry): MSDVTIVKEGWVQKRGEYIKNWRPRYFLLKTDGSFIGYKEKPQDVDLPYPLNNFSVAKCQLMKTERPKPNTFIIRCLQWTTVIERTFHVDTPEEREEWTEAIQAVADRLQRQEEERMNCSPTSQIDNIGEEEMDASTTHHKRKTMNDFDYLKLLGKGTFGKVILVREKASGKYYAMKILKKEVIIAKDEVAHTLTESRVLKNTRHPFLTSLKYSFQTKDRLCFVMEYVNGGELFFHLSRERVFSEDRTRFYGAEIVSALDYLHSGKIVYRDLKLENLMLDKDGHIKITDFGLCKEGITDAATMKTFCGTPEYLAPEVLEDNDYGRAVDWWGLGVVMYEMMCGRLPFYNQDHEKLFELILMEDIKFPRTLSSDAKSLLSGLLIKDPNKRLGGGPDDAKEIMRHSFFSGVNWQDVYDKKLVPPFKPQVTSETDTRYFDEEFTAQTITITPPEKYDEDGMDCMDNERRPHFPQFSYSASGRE
kinases (KINOMEscan panel) (Homo sapiens, UniProt P50750), sequence (P50750 whole entry): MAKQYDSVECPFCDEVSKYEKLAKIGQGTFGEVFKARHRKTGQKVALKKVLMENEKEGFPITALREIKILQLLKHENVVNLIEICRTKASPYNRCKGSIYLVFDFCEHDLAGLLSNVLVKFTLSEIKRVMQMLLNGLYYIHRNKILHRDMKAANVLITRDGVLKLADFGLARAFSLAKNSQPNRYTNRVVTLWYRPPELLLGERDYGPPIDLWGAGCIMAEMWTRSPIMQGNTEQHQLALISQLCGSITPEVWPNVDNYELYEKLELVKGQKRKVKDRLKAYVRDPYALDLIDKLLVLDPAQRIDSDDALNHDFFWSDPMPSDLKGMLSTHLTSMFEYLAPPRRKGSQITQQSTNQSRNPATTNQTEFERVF
kinases (KINOMEscan panel) (Homo sapiens, UniProt Q8N5S9), sequence (Q8N5S9 whole entry): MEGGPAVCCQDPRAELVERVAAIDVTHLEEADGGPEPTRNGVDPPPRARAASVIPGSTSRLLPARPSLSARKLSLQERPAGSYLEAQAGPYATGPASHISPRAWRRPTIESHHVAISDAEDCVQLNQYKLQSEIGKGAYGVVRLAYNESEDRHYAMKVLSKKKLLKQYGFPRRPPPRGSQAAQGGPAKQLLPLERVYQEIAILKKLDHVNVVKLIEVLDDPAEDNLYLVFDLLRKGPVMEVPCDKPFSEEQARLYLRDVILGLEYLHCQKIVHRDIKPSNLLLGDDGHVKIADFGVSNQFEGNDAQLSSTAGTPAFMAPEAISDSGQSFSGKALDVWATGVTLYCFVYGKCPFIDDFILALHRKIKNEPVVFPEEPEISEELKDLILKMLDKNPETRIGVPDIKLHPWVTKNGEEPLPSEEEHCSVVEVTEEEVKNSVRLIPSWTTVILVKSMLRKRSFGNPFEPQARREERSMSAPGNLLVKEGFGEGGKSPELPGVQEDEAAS
kinases (KINOMEscan panel) (Homo sapiens, UniProt Q00536), sequence (Q00536 whole entry): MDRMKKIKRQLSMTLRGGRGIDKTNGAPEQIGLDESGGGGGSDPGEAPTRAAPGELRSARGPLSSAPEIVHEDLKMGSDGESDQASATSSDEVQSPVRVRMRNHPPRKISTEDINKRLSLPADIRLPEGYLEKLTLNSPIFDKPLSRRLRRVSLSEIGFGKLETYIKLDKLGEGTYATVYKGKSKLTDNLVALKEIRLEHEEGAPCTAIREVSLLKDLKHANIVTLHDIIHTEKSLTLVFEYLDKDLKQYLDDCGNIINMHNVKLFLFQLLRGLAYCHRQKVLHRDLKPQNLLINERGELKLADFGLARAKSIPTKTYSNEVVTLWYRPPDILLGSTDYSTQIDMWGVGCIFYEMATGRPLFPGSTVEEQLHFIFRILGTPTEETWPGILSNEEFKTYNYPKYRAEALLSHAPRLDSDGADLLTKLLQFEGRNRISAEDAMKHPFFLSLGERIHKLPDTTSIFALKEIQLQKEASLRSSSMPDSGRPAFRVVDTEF
kinases (KINOMEscan panel) (Homo sapiens, UniProt Q07002), sequence (Q07002 whole entry): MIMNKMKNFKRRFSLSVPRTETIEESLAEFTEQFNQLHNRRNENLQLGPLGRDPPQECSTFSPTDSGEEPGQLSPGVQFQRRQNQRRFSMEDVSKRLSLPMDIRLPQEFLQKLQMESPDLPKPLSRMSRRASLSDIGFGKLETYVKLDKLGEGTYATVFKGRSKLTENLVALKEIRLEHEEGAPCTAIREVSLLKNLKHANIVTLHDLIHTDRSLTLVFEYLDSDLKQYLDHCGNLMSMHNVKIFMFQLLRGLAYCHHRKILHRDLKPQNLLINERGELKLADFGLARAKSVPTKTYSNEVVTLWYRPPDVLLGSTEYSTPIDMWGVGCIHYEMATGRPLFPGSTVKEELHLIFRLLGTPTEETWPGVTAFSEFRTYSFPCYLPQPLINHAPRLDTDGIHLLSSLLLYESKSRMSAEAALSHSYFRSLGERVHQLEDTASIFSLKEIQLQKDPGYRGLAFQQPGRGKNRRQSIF

Cc1cccc(-c2nc(Nc3ccc4nn(C)cc4c3)c3ccccc3n2)n1 [NK167]
KINOMEscan PRKCE [1]: 0
KINOMEscan CDK18 [2]: 0
KINOMEscan WNK4 [3]: 0
KINOMEscan CDK9 [4]: 8
KINOMEscan COQ8B [5]: 0
KINOMEscan CDK16 [6]: 0
KINOMEscan CAMKK1 [7]: 0
KINOMEscan AKT3 [8]: 0
KINOMEscan ULK3 [9]: 0

Cc1cccc(-c2nc(N(C)c3ccc4ncsc4c3)c3ccccc3n2)n1 [NK-161]
KINOMEscan PRKCE [1]: 7
KINOMEscan CDK18 [2]: 0
KINOMEscan WNK4 [3]: 0
KINOMEscan CDK9 [4]: 4
KINOMEscan COQ8B [5]: 0
KINOMEscan CDK16 [6]: 0
KINOMEscan CAMKK1 [7]: 9
KINOMEscan AKT3 [8]: 0
KINOMEscan ULK3 [9]: 1
